The target in one data set is T1, CYP2A6 (Homo sapiens, UniProt P11509).
T1 sequence (P11509 1-494): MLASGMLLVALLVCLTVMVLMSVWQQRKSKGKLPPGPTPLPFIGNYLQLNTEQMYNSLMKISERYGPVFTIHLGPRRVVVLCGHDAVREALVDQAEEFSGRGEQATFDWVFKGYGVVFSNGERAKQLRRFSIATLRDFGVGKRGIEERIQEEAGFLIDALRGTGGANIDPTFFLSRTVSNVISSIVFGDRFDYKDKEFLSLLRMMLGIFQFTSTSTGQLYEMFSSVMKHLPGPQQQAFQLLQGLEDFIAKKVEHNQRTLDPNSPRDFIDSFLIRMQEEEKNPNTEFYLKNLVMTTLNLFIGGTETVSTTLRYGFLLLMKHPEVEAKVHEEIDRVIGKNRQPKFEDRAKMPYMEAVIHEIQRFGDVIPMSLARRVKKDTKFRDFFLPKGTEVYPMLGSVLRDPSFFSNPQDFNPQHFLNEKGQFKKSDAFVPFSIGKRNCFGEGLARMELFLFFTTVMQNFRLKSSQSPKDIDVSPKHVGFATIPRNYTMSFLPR
Nature of the data set: CYP2A6 inhibition assay (substrate coumarin). From the text: (§1) The CYP inhibition assays used microsomes (Supersomes®, Gentest Corp., Woburn, Mass.) prepared from insect cells, each expressing an individual CYP subtype (CYP1A2, CYP2A6, CYP2B6, CYP2C8, CYP2C9, CYP2C19, CYP2D6, CYP2E1 or CYP3A4) expressed from the corresponding human CYP cDNA using a baculovirus expression vector. The microsomes also incorporated supplemental cDNA-expressed human reductase and/or cytochrome b5, as these enzymes stimulate the activity of the CYPs, allowing for a reduction in the amount of enzyme required per reaction (Gentest Corp.). The assays monitored, via fluorescence detection, the formation of a fluorescent metabolite following incubation of the microsomes with a specific CYP substrate. […] Reactions (0.2 mL) were performed in 96-well microtitre plates at 37° C. in the presence of an NADPH regenerating system [NADP+, glucose-6-phosphate (G6P), glucose-6-phosphate dehydrogenase (G6PDH)] and MgCl2. […] All determinations were performed in duplicate. The reagent solutions used for all of the CYP subtype assays, except CYP2C19 and CYP3A4, were prepared by MBDI. For CYP2C19 and CYP3A4, complete reagent kits purchased from Gentest Corp. (CYP2C19/CEC: Cat. No. HTS-4000, Lot No. 1; CYP3A4/BFC: Cat. No. HTS-1000, Lot No. 1) were used to perform the assays.
(§2) Eight inhibitor and test compound concentrations were tested using 3-fold serial dilutions. The microtitre plates containing 0.1 mL/well of the latter mixture were pre-warmed to 37° C. in an incubator. […] The amount of metabolic product formed was quantified by fluorescence detection in a fluorescence plate reader utilizing excitation and emission filters that had been optimized for the detection of each metabolite.
(§3) Data Analysis—The mean of the duplicate fluorescent signals in the presence and absence (vehicle control) of each compound was calculated and corrected for the background noise. Percent inhibition was calculated as the difference in the corrected fluorescent signals in the absence and presence of the compound, divided by the corrected fluorescent signal in the absence of compound, multiplied by 100%.

The target of the next data set is T2, CYP2B6 (Homo sapiens, UniProt P20813).
T2 sequence (P20813 1-491): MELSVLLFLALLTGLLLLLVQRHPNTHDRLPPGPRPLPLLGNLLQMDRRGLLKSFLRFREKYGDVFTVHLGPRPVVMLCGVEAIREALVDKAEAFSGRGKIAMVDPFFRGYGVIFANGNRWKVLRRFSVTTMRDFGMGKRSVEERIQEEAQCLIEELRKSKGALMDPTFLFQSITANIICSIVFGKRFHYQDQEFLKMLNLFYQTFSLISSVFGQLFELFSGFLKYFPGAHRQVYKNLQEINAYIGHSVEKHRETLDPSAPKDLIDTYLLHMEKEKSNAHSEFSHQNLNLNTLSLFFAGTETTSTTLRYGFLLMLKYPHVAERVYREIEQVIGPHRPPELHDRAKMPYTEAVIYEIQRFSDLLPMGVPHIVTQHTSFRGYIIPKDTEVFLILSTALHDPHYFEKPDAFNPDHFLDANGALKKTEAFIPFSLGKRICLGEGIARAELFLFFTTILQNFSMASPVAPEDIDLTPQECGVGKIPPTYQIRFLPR
Nature of the data set: CYP2B6 inhibition assay (substrate EFC).
From the text: as §1, §2, §3

A further data set addresses T3, CYP2E1 (Homo sapiens, UniProt P05181).
T3 construct: purchased Gentest Corp; host or cells: insect cells (baculovirus)
The data set can be described thus: CYP2E1 inhibition assay (substrate MFC). It counts as in vitro ADME. Here is the method: All determinations were performed in duplicate.

In data set [1] the test system is patients with mild to moderate hypertension, hyperlipidemia and diabetes mellitus. The data set can be described thus: 14-week open-label forced dose-escalation study of P5P in hypertensive diabetics (concomitant statin). Type of data set: in vivo, human. The note with it: individual patient; for Chol:HDL ratio V.1 / HDL cholesterol V.1 / LDL cholesterol V.1 / Total cholesterol V.1 / Triglycerides V.1: V1: 1st visit, Week One, Day 1, on statin; for Triglycerides V.12 / Chol:HDL ratio V.12 / HDL cholesterol V.12 / LDL cholesterol V.12 / Total cholesterol V.12: V12: Last Visit, Week 14, Day 98; for Triglycerides V.12: concomitant P5P (250 to 750 mg once daily) and statin; for Chol:HDL ratio V.12 / HDL cholesterol V.12 / LDL cholesterol V.12 / Total cholesterol V.12: concomitant P5P and statin. From the text:
Patient Definition-Patients meeting all of the inclusion criteria and none of the exclusion criteria were eligible for enrollment. The primary inclusion criteria were hypertension and diabetes. At screening all patients must present with or have a history of, uncomplicated, stable, mild to moderate hypertension, (supine diastolic blood pressure SUDBP ≧90 and ≦114 mm Hg) regardless of use or non-use of treatment for this disease. […] The hypertensive patients must present with and have a history (>24 months) of diabetes mellitus (type 1 or 2), that is controlled or uncontrolled, at both screening and treatment initiation visits, to be eligible for inclusion in the study. Other than having diabetes and hypertension, patients must be in good health for their age. A history and physical examination must be within age-related normal limits, or if abnormal, considered clinically insignificant in the opinion of the investigator. Laboratory tests (CBC with differential, prothrombin and partial thrombo-plastin times, platelet count, and urinalysis and blood chemistry panel), must be normal, or if abnormal, considered clinically insignificant. Patients must have a normal ECG or, if abnormal, considered clinically insignificant. […] Essentially, all patients complete a fixed four-week placebo lead-in, to qualify for initiation of active treatment. Eligible patients then begin treatment with 250 mg/day of […]. This dose was administered orally on a daily basis for the next two (2) weeks, subject to dose-limiting side-effects, after which patients are force-titrated to 500 mg/day of […]. […] Thereafter, and for the final four (4) weeks of the study all patients were treated with placebo medication. […] Patients who were on anti-lipid medication prior to the initiation of the study continued their anti-lipid regime throughout the study. Primary Efficacy Evaluations • Supine diastolic blood pressure (SUDBP) measured at specified intervals; • Triglyceride, total cholesterol, LDL cholesterol, and HDL levels measured at specified intervals. […] Dosage Regimens-All patients receive treatment medication once daily, in the morning one hour before breakfast. At each dosing, the prescribed number of tablets will be taken orally, with water, to allow for the following dosing levels: The first dose of study medication is administered at clinic under the supervision of clinic personnel. Patients previously on anti-lipid therapy continued their anti-lipid regime unchanged throughout the study.

Where [2] appears, read: read-out: Expected Inhibitor IC50, value expected from assay validation (mean ± S.D., n ≧ 8 experiments).
Where [3] appears, read: read-out: Observed Inhibitor IC50.

Data on 5 compounds can be found in US20070280915A1, “Combination Therapies Employing A Composition Comprising A Hmg Coa Reductase Inhibitor And A Vitamin B6 Related Compound” (priority 2003, published 2007).

SMILES strings stand for the structures. Several values for one entry are separate records, joined by “and”; a condition that tells them apart may be missing. Identical values can stand only once. Like-named read-outs stand apart in the source and are kept apart here.

T3 sequence (P05181 whole entry): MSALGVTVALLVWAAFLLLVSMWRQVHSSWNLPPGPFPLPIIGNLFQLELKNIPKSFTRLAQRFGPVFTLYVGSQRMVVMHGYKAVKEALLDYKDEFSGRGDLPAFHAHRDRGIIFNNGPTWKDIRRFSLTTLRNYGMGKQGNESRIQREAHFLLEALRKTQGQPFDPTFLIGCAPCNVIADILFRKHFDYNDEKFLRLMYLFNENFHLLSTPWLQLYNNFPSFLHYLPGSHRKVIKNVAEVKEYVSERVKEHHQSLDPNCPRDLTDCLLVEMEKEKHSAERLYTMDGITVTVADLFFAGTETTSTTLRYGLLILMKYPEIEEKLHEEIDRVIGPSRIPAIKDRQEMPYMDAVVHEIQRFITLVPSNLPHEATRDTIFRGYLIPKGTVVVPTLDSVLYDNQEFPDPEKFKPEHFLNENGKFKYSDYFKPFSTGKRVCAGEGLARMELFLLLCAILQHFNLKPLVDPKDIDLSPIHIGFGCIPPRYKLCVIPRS

The IC50 is the concentration at which inhibition is half-maximal. Regarding `N[C@@H]1C[C@H]1c1ccccc1` (racemic) [Tranylcypromine], the IC50 on CYP2A6 (setting [2]) was 0.99 ± 0.209 µM; at CYP2A6 (setting [3]), 0.605 µM; at CYP2B6 (setting [2]), 8.82 ± 2.43 µM; on CYP2B6 (setting [3]), 6.59 µM.
For `CCN(CC)C(=S)S` [DDTC, Diethyldithiocarbamic acid], the IC50 was 3.56 µM on CYP2E1 (setting [3]) and 5.06 ± 1.96 µM at CYP2E1 (value expected from assay validation (mean ± S.D., n ≧ 8 experiments), read-out: Expected Inhibitor IC50).
Take `CC(C)c1c(C(=O)Nc2ccccc2)c(-c2ccccc2)c(-c2ccc(F)cc2)n1CC[C@@H](O)C[C@@H](O)CC(=O)O` [Lipitor, atorvastatin]: in data set [1], the “Chol:HDL ratio V.1” value is 5.0 and 2.2; the “HDL cholesterol V.1” value is 43 mg/dL and 62 mg/dL; the “LDL cholesterol V.1” value is 123 mg/dL and 55 mg/dL; the “Total cholesterol V.1” value is 217 mg/dL and 136 mg/dL. Further, in data set [1], the “Triglycerides V.1” value is 255 mg/dL and 96 mg/dL; the “Triglycerides V.12” value is 179 mg/dL and 106 mg/dL; the “Chol:HDL ratio V.12” value was 5.6 and 2.1; the “HDL cholesterol V.12” value is 48 mg/dL and 75 mg/dL. In data set [1], the “LDL cholesterol V.12” value is 183 mg/dL and 63 mg/dL; the “Total cholesterol V.12” value is 267 mg/dL and 159 mg/dL.
For the compound `CC[C@H](C)C(=O)O[C@H]1C[C@H](O)C=C2C=C[C@H](C)[C@H](CC[C@@H](O)C[C@@H](O)CC(=O)O)[C@H]21` [Pravachol, pravastatin], in data set [1], the “Chol:HDL ratio V.1” value is 9.5, the “HDL cholesterol V.1” value stood at 33 mg/dL, the “Total cholesterol V.1” value came out at 313 mg/dL and the “Triglycerides V.1” value was determined as 667 mg/dL. Besides, in data set [1], the “Triglycerides V.12” value is given as 365 mg/dL, the “Chol:HDL ratio V.12” value worked out at 8.4, the “HDL cholesterol V.12” value is on record as 29 mg/dL and the “Total cholesterol V.12” value is recorded as 243 mg/dL.
Take `CCC(C)(C)C(=O)O[C@H]1C[C@@H](C)C=C2C=C[C@H](C)[C@H](CC[C@@H]3C[C@@H](O)CC(=O)O3)[C@H]21` [Zocor, simvastatin]: in data set [1], the “Chol:HDL ratio V.1” value is 3.9 and 6.3; the “HDL cholesterol V.1” value is 39 mg/dL and 43 mg/dL; the “LDL cholesterol V.1” value was 80 mg/dL and 185 mg/dL; the “Total cholesterol V.1” value was 152 mg/dL and 272 mg/dL. For the same compound, in data set [1], the “Triglycerides V.1” value was 164 mg/dL and 222 mg/dL; the “Triglycerides V.12” value is 212 mg/dL and 187 mg/dL; the “Chol:HDL ratio V.12” value was 4.1 and 5.8; the “HDL cholesterol V.12” value was 35 mg/dL and 40 mg/dL. Moreover, in data set [1], the “LDL cholesterol V.12” value was 68 mg/dL and 153 mg/dL; the “Total cholesterol V.12” value was 145 mg/dL and 230 mg/dL.
